From patent publication US7652037B2, “Methods of lowering lipid levels in a mammal” (City Of Hope, priority 2003, dated 2010)
“Also recorded” adds a separate entry of the source.

How the values were obtained:
[1] = Superoxide production, methylglyoxal with N-α-acetyl-lysine, WST-1 assay
Experimental: The superoxide radical scavenging activity of the compounds was evaluated using the WST-1 method described in Ukeda et al., Anal. Sci. 18:1151-1154, 2002. Briefly, methylglyoxal, was incubated with or without N-α-acetyl-lysine in 0.05 M chelex-treated sodium phosphate buffer, pH 7.4, in the presence of various concentrations of the inhibitor compounds. The production of superoxide was monitored spectrophotometrically at 438 nm, and compared with superoxide dismutase and Tiron, two known superoxide radical scavengers.

STZ-Diabetic Rats [2] = assay: AGE immunohistochemistry of kidney (6D12 anti-CML antibody); format: in vivo, rat
Experimental: For immunohistochemical AGE staining, formalin-fixed […] embedded sections (2 μm thick) were mounted on slides coated with 2-aminopropyltriethoxy silane, baked for 3 hours at 58° C., deparaffinized, rinsed with 3% hydrogen peroxide, and incubated with Proteinase K (0.5 mg/mL) for 5 minutes at room temperature. These sections were washed with rinse buffer and blocked with Protein Blocking Agent for 5 minutes and subsequently incubated with 6D12 anti-AGE mouse monoclonal antibody specific for CML for 30 minutes at room temperature. After washing with rinse buffer, the sections were incubated with EnVision™ with labeled polymer peroxidase-conjugated mouse anti-IgG for 30 minutes at room temperature, followed by detection with 3,3′-diaminobenzidine tetrahydrochloride solution as chromogen and 50% hematoxylin as counterstain.

STZ-Diabetic Rats [3] = assay: Total plasma/serum triglycerides and cholesterol in STZ-diabetic rats (Example 2); format: in vivo, rat; settings: 32 weeks, towards levels of non-diabetic animals
Experimental: Male Sprague-Dawley rats (about 175 to 200 g) were adapted for one week prior to treatment, then rendered diabetic by intra-peritoneal injection of STZ (65 mg/kg in citrate buffer, pH 4.5) after an overnight fast. Control (non-diabetic) animals were injected with the buffer only. Diabetes was confirmed by measuring the plasma glucose concentrations 7 days after Streptozotocin (STZ)-injection. Only animals with a plasma glucose concentration greater than 20 mmol were classified as diabetic and used in the study. These diabetic rats were divided randomly into an untreated diabetic control group and a diabetic treatment group. The treatment group received an LR compound at 50 mg/l in their drinking water throughout the duration of the study (32 weeks for LR-90; 30 weeks for LR-9 and LR-74). All animals were housed individually and were given free access to food and water.
Blood (from the tail vein) and urine samples were collected from rats for glycemic control analysis and albuminuria measurements. Glycemia was monitored every 8 weeks by measuring plasma glucose and glycated hemoglobin. Plasma or serum also was tested for total cholesterol and total triglycerides. Progression of renal dysfunction was assessed by measuring urinary albumin to creatinine ratio (UA/Cr) and serum or plasma creatinine. […]

STZ-Diabetic Rats [4] = assay: Kidney anatomy and histopathology (PAS, trichrome, Picrosirius red, TEM); format: in vivo, rat
Excerpt: To quantitate glomerulosclerosis (defined as glomerular basement membrane thickening, mesangial hypertrophy, and capillary occlusion), kidney sections were stained with periodic acid Schiff (PAS) reagent. A total of 150 glomeruli were randomly chosen from each rat kidney (four different kidneys per treatment) and carefully graded for sclerosis, by a blinded evaluator. The degree of sclerosis in each glomerulus was graded subjectively on a scale of 1 to 4 as follows: grade 1, sclerotic area less than 25%; grade 2, sclerotic area 25-50%; grade 3, sclerotic area 51-75%; and grade 4, sclerotic area more than 75%. The glomerulosclerotic index (GSI) then was calculated using the following formula: GSI=Σ^4i=1 Fi (I), where Fi is the percentage of glomeruli in the rat with a given score of (I). See Wilkinson-Berka et al., Diabetes 51:3283-3289, 2002. To quantitate glomerulosclerosis, kidney sections were stained with periodic acid Schiff (PAS) reagent.
Cellular infiltrates were identified in the renal interstitium from 5 μm-thick kidney sections stained with PAS. Infiltrates in each kidney sample were graded as follows: + (patchy and light), ++ (patchy and dense), +++ (diffuse and dense with aggregates of neutrophils in tubules or in interstitium) also in a blinded manner. For collagen deposition staining in the kidneys, paraffin sections were randomly chosen from kidneys from each treatment group and stained with Masson's trichrome. Briefly, the sections were deparaffined, hydrated with water, and immersed in Mordant in Boiuin's solution for 10 minutes. The sections then were rinsed in water and stained with Mayer's hematoxylin for 6 minutes. After rinsing in water, Biebrich scarlet-acid fuchsin was added for 2 minutes, rinsed, phosphomolybdic-phosphotungstic solution added for 15 minutes, followed by aniline blue solution for 10 minutes. After rinsing the sections with water, glacial acetic acid was added for 20 seconds and then the slides were dehydrated with 95% ethanol. With this method, blue and red colors indicate collagen and cytoplasm staining, respectively. […]

| Compound | effect on superoxide production [1] | AGE staining in kidney glomeruli and cortical tubules (STZ-Diabetic Rats [2]) | reduction of serum cholesterol (STZ-Diabetic Rats [3]) [%] | reduction of serum triglycerides (STZ-Diabetic Rats [3]) [%] | basement membrane thickening (TEM photographs) (STZ-Diabetic Rats [4]) | cellular infiltrates in the renal interstitium (STZ-Diabetic Rats [4]) | collagen deposited inside the glomeruli and the tubulointerstitium (Picrosirius red) (STZ-Diabetic Rats [4]; 32 weeks) |
| --- | --- | --- | --- | --- | --- | --- | --- |
| CC(Oc1cccc2cccnc12)C(=O)O (stereo not shown) [LR-74, 2-(8-quinolinoxy) propionic acid] | little or no effect |  |  |  |  |  |  |
| methylene bis(4,4′-(2-chlorophenylureidophenoxyisobutyric acid) [LR-90] |  | visibly reduced | 50 | 50 | reduced basement membrane thickening | prevented cell infiltration; also recorded: no neutrophils were detected | reduced |
